# Test results as given in publication PMC6100073, “Activation of Anthracene Endoperoxides in Leishmania and Impairment of Mitochondrial Functions” (Molecules : A Journal of Synthetic Chemistry and Natural …, 2018).
# How the values were obtained:
# LtP [1] = assay: Uncoupling of LtP respiration in presence of oligomycin (OxoPlates); assay type: cell-based, Leishmania tarentolae; conditions: 38 µM Oligo
# Method: The uncoupling experiments using OxoPlates were carried out in analogy to oxygen consumption measurements of LtP. An oligomycin (Oligo) premix in aBHI was prepared leading to a final concentration of 38 µM oligomycin (Oligo). Each well of the second row was filled with 50 µL of aBHI. From the third row on, each well was filled with 50 µL of the Oligo premix and to the fourth row additional 50 µL Oligo premix was added. The respective amounts of the substances (Ac, AQ, AcEP1117, AcEP1118, AcEP1129, AcEP1130, CCCP) were added and a serial 1:2 dilution was performed. Measurements were carried out as described above. The oxygen consumption rates were normalized to the wells that contained only LtP. For each concentration measurements were done in triplicates.
# [2] = Xylenol orange assay: reaction of endoperoxides with Fe2+; conditions: 50 µM compound, 250 µM FeSO4, 125 µM xylenol orange, methanol/H2O (9:1 v/v)
# Method: Xylenol orange (XO) (125 µM) and butylated hydroxytoluene (4 mM) were dissolved in methanol/H2O (9:1, v/v). FeSO4 (25 mM) in 2.5 M H2SO4 was prepared immediately before use and added, giving a final concentration of 250 µM FeSO4 in the samples. An aliquot of 100 µL EP solution (final concentration of 50 µM) was transferred into a disposable 1.5 mL cuvette (BRAND, Wertheim, Germany), and 1 mL of the color reagent was added. […] At these time points, the OD difference of the sample at 560 nm and 650 nm was determined using a MS1501 UV-vis diode array spectrophotometer (Shimadzu, Japan). As reference, a mixture of methanol/H2O (9:1, v/v) was used. […] The slope of the reaction rate was calculated using an extinction coefficient of the complex of 1.5 × 10^4 M^−1 cm^−1.
# LtP [3] = assay: EPR spin trapping (DMPO): activation of AcEPs by LtP; assay type: cell-based, Leishmania tarentolae; conditions: 500 µM compound, 2 × 10^9 LtP/mL, 40 mM DMPO, 15 min, no added iron
# Method: To detect the radicals derived from AcEPs in LtP, EPR experiments were performed using DMPO as spin trap. Aliquots of the cell broth were transferred into Sarstedt tubes that were centrifuged (20 °C, 1800× g, 10 min), and the supernatants were discarded. Then the cell pellets were resuspended in PBS and centrifuged again. After removal of the supernatants, the cell pellets were resuspended in a mixture of PBS containing glucose (15 mM), giving a final cell number of 2 × 10^9 LtP/mL. Aliquots (150 µL) were incubated in 1.5 mL Eppendorf tubes with aeration holes. The cells were incubated with DMPO (40 mM) for 5 min at 26 °C, and after addition of 500 µM of the respective substance (Asc, AcEP1117, AcEP1118, AcEP1129, AcEP1130, Ac or AQ), the samples were incubated for additional 15 min at 26 °C under constant agitation (agitation speed: 0.3 s^−1). Control samples containing LtP, LtP and DMSO (1.27%, v/v), or PBS/glucose alone were incubated with 40 mM DMPO under the same conditions. Cell samples containing DMPO that were treated with Asc served as positive control. Samples treated with Ac or AQ were used as negative controls. Subsequently, 50 µL of the samples were aspirated into glass capillaries and transferred in the MD5 resonator of the EPR spectrometer. The samples were measured immediately using the following instrument settings: microwave frequency 9.684 GHz; microwave power 20 mW, modulation frequency 100 kHz; modulation amplitude 2 G; time constant 0.164 s; center field 3449 G; scan rate 71 G/min; sweep width 100 G; scan time 84 s; attenuation 8.93 × 10^5; and scans 3.
# LtP [4] = assay: EPR (CMH oxidation): superoxide formation in LtP; assay type: cell-based, Leishmania tarentolae; conditions: 20 µM AA or 100 µM other compounds, 500 × 10^6 LtP/mL, 400 µM CMH, DFO, DTPA, 5 min, 25 °C
# Method: To measure superoxide radical (O2^•−) formation induced by AcEPs in LtP, EPR spectroscopy was used. An aliquot of the cell broth was transferred into an Eppendorf tube that was centrifuged (Hettich Universal 16, 20 °C, 2000× g, 10 min). The supernatant was discarded, the cell pellet was resuspended in PBS and centrifuged again. After removal of the supernatant, the cell pellet was resuspended in a mixture of PBS, 15 mM glucose (PBS/Glu), DFO (100 µM), and DTPA (25 µM). […] The cell suspension was aliquoted. CMH was added as detection agent leading to a final concentration of 400 µM. After 5 min of incubation at 25 °C, the respective substance was added resulting in final concentrations of 20 µM antimycin A (AA) or 100 µM of AcEP1117, AcEP1118, AcEP1129, AcEP1130, Ac, and AQ. Samples containing LtP and CMH were used as negative control. Samples containing PBS/Glu and CMH were used as negative control as well. After 5 min of incubation at 25 °C with the respective substance, aliquots of 17 µL of the cell suspensions were aspirated into a PTFE tube (outer diameter 0.7 mm). The tube was transferred into the MD5 resonator of the EPR spectrometer. Immediately, the measurement was started using the following parameters: microwave frequency 9.684 GHz; microwave power 20 mW, modulation frequency 100 kHz; modulation amplitude 1 G; time constant 0.82 s; center field 3449 G; scan rate 14 G/min; sweep width 100 G; scan time 419 s; attenuation 2.52 × 10^4; and scans 5.
structure (smiles),measurement,setting,value
"N#CC(C#N)=NNc1cccc(Cl)c1 [CCCP, carbonyl cyanide m-chlorophenylhydrazone]",uncoupling effect (recovery of O2 consumption in the presence of Oligo),LtP [1]; 0.31–5.0 µM CCCP or 12.5–200.0 µM other compounds,a recovery of O2 consumption in the presence of Oligo was observed
"CC(C)C12C=CC(C)(CC1)OO2 (centres unmarked) [Asc, ascaridole, reference compound]",Slope (nM·min^−1) Mean ± SD of XO/Fe^3+ complex formation,[2],608 ± 52 nM/min
same,DMPO spin adduct formation in LtP (EPR),LtP [3],showed DMPO spin adducts of carbon-centered radicals
"CCCCCC[C@H]1C(=O)O[C@H](C)[C@H](NC(=O)c2cccc(NC=O)c2O)C(=O)O[C@@H](C)[C@@H]1OC(=O)CC(C)C [AA, antimycin A, reference compound]",CMH oxidation (superoxide radical formation) in LtP,LtP [4],triggered additional CMH oxidation in LtP
"CC[C@H]1/C=C/C=C/C[C@@H](C)[C@H](O)[C@@](C)(O)C(=O)[C@@H](C)[C@H](O)[C@@H](C)C(=O)[C@@H](C)[C@H](O)[C@@H](C)/C=C/C(=O)O[C@@H]2[C@H](C)[C@H](CC1)O[C@]1(CC[C@H](C)[C@H](C[C@@H](C)O)O1)[C@H]2C [Oligo, oligomycin]",oxygen consumption rate compared to untreated LtP,LtP [1]; 140 × 10^6 LtP/mL,about 60%
